Measurements from ChEMBL document CHEMBL3886216, “Triazine carboxamides as sodium channel blockers” (2015).
pIC50: −log10 of the molar value.

The compounds below were run against Sodium channel protein type 9 subunit alpha (Homo sapiens, UniProt Q15858) (assay: FLIPR Assay: […] Sodium Dye Assay with KCl: Cells were prepared by plating the recombinant HEK293 cells or other host cells expressing either recombinant or non-recombinant, native, Nav1.7 alpha subunit, alone or in combination with various beta and gamma subunits at a density of ~40,000 cells/well into a 96-well black, clear-bottom, PDL-coated plate. The assay can be adapted to 384-well or 1,536-well format, if desired, using proportionately fewer cells and less media. The plate was then incubated in growth media, with or without selective antibiotic, overnight at 37 C. at 5% CO2, 95% humidity, in preparation for the assay. For counter-screens of other voltage-gated sodium channels, the procedure was very similar, though optimal densities of cells, media and subsequent assay components can be fine-tuned for the particular cell line or isoform. […] Membrane Potential Assay with KCl: Cells are prepared by plating the recombinant HEK293 cells.).
Format: cell-based

Sequence of Sodium channel protein type 9 subunit alpha (Q15858 whole entry): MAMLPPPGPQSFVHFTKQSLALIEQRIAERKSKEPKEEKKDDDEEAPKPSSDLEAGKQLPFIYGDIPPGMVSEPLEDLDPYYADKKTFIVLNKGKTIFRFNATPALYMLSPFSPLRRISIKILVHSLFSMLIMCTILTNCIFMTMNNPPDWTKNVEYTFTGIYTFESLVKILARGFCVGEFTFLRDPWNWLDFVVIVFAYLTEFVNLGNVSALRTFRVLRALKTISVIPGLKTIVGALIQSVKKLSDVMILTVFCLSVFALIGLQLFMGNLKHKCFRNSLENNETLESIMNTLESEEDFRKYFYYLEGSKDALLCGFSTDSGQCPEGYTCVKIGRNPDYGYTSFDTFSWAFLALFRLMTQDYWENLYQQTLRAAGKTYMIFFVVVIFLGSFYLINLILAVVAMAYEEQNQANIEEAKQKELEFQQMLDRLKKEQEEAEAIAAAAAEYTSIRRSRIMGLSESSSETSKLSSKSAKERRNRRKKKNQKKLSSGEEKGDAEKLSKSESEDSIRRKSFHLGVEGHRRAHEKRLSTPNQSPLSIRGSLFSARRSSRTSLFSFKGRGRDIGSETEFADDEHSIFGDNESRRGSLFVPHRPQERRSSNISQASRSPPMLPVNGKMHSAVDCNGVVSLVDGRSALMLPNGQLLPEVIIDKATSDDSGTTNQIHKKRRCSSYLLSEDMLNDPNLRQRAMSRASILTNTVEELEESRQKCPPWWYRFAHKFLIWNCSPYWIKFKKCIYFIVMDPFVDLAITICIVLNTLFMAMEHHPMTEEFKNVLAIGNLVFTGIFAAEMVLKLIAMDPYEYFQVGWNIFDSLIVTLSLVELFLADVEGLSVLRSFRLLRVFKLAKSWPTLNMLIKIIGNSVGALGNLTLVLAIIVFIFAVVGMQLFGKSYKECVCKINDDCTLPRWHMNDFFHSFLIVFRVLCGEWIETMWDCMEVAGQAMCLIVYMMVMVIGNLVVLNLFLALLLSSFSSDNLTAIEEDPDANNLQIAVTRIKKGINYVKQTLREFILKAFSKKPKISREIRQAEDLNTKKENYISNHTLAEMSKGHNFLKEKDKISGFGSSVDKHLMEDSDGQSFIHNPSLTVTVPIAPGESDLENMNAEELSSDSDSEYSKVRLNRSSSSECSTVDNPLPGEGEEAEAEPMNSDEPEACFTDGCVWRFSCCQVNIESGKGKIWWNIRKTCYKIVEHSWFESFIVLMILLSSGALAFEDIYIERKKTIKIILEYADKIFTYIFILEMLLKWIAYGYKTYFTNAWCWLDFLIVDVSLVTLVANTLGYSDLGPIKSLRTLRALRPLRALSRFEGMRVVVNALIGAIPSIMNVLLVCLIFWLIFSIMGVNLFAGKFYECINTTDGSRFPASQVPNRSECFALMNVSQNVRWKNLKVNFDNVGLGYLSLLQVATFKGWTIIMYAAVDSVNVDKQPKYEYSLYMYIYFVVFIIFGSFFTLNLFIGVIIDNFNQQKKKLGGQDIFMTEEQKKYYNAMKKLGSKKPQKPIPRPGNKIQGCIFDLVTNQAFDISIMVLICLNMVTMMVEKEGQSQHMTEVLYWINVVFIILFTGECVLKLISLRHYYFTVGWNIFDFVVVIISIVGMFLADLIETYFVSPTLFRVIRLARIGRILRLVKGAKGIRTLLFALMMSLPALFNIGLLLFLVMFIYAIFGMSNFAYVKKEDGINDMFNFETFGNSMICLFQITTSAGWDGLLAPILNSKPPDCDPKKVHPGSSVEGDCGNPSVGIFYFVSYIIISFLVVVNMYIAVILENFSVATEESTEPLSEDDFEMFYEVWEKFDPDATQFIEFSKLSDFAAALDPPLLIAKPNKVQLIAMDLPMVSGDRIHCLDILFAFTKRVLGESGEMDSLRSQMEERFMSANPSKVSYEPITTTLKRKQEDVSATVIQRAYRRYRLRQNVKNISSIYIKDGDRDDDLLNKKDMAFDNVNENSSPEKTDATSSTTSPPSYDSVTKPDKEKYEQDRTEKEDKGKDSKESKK

`N#Cc1nc(-c2ccc(Oc3ccc(OC(F)(F)F)cc3)cc2)nc(N2CCOCC2)n1` and `N#Cc1nc(N[C@H]2CCNC2=O)nc(-c2ccc(Oc3ccc(C(F)(F)F)cn3)cc2)n1` cannot be ordered by pIC50: under 4.70 for the first, under 4.70 for the second.

Compound `NC(=O)c1nc(N[C@H]2CCNC2=O)nc(-c2ccc(Oc3ccc(C(F)(F)F)cn3)cc2)n1` has a pIC50 of 5.75.
